From patent US11246946B2, “Methods of treatment using ultrasmall nanoparticles to induce cell death of nutrient-deprived cancer cells via ferroptosis” (priority 2015, dated 2022)

Legend:
glutathione = test: Glutathione quantification; type: cell-based; settings: MCF10A, full or amino acid-free media, 24 hours; 15 μM particles or 400 μM BSO
Procedure: For glutathione measurements, HT-1080 cells were plated on 6 cm cell culture dishes, incubated with 15 μM α-MSH-tagged nanoparticles in amino acid-free DMEM+10% dialyzed FBS and harvested approximately 2 hours before the expected time of death. As controls, cells were treated with a mix of 3 parts full or amino acid-free DMEM and 1 part H2O, or 100 μM BSO in full media. Cells were washed 3× with cold PBS and harvested through cell scraping in 50 μL cold lysis buffer. Protein concentrations were measured using the BCA assay and sample volumes were adjusted so that each had the same final protein concentration. Total glutathione was measured using the Glutathione Assay Kit (Cayman Chemicals, 703002) and reduced glutathione was measured using the QuantiChrom™ Glutathione Assay Kit (BioAssay Systems, DIGT-250) according to manufacturer's instructions.

[1] = tested on: MCF10A human mammary epithelial cells; test: Cell death (Sytox green+) by time-lapse microscopy, MCF10A; type: cell-based; settings: for effect on nanoparticle-induced cell death / effect on α-MSH-PEG-C′ dot-induced cell death: AA-st plus 15 μM α-MSH-PEG-C′ dots, 40 hours; for effect on nanoparticle-induced cell death: 50 μM BHA, 200 μM ascorbic acid, 100 μM Trolox, 10 mM NAC, 5 mM GSH; for effect on α-MSH-PEG-C′ dot-induced cell death: inhibitor 1 μM
Procedure: (§1) MEF and HT1080 cells were cultured in Dulbecco's modified Eagle's medium (DMEM) (MSKCC Media Preparation Facility) supplemented with 10% fetal bovine serum (FBS, Sigma, St. Louis, Mo.) with penicillin/streptomycin (Corning, Corning, N.Y.). MCF10A cells were cultured in DMEM/F12 (Gibco, Grand Island, N.Y.) supplemented with 5% horse serum (Atlanta Biologicals, Flowery Branch, Ga.), 20 ng/ml EGF (Peprotech, Rocky Hill, N.J.), 10 μg/ml insulin (Sigma), 0.5 μg/ml hydrocortisone (Sigma), and 100 ng/ml cholera toxin (Sigma) with penicillin/streptomycin. M21, BxPC3, H1650, and 786-O cells were cultured in RPMI-1640 (Gibco) supplemented with 10% FBS with penicillin/streptomycin. SKOV3 cells were cultured in McCoy's 5a modified medium (Gibco) supplemented with 10% FBS with penicillin/streptomycin. Amino acid-free medium was prepared by dialyzing heat-inactivated FBS (for MEF, HT1080, M21, BxPC3, H1650, and SKOV3 cells) or horse serum (for MCF10A cells) for 4 h, followed by overnight incubation at 4° C. in phosphate-buffered saline (PBS) in MWCO 3500 dialysis tubing (21-152-9; Fisherbrand, Pittsburgh, Pa.) and addition to base media prepared without amino acids. PRetro-Lamp1-GFP was introduced into M21 cells by retroviral transduction, and stable cell lines were selected with puromycin (2 μg ml^−1).
(§2) NIS Elements software (Nikon, Melville, N.Y.) was used.

lipid ROS = test: C11-BODIPY imaging of lipid ROS before cell death; type: cell-based; settings: erastin 5 μM plus liproxstatin-1, 6 hours after control cells underwent cell death
Excerpt: as §2

HT-1080 tumors = test: HT-1080 flank xenograft, multi-dose i.v. particle treatment; type: in vivo, mice
Procedure: All animal experiments were performed in accordance with protocols approved by the Institutional Animal Care and Use Committee of Memorial Sloan-Kettering Cancer Center and followed NIH guidelines for animal welfare. Human melanoma (M21) xenografts were generated on the shaved flanks of immunodeficient male SCID/Beige (C.B-17/IcrHsd-Prkdc^scidLyst^bg-J) mice (6-8 weeks old; Harlan Laboratories, South Easton, Mass.). Human sarcoma HT1080 and 786-O flank xenografts[…]) were additionally generated using the same model for intravenous particle injection. Average initial tumor volumes of 45-75 mm^3 were used for all experiments.
Five million M21 cells, cultured in serum-supplemented media, were subcutaneously implanted into the right flank of mice using a 23-gauge trocar needle to establish melanoma xenografts 2 days after particle exposure (n=3) or without exposure (n=3). […] Tumor sizes were measured using calipers over the treatment interval. […] Two perpendicular diameters (d1≤d2) of the tumor used to calculate the tumor volume (V; 4/3·π·d1^2·d2/8) were measured with calipers daily following the injection of cells.
Volume-time profiles were compared between the two treatment groups using robust standard errors calculated using by a generalized estimating equations approach. […]

[2] = tested on: mouse embryo fibroblasts (MEF); test: Cell death (Sytox green+) by time-lapse microscopy, MEF; type: cell-based; settings: wt MEFs, 100 ng/ml TNFα, 1 μg/ml CHX and 20 μM zVAD, plus 30 μM Nec-1
Procedure: as §1, §2

[3] = tested on: ferritin heavy chain (FTH1); test: Ferritin heavy chain western blot; type: cell-based; settings: amino acid-starved cells, 24 hours; 15 μM particles, FAC 400 μM, DFO 100 μM
amino acid-starved cells = settings: amino acid-starvation conditions, FAC 400 μM

CCCCS(=N)(=O)CCC(N)C(=O)O (stereo not shown) [BSO, Buthionine sulphoximine]
reduced glutathione (GSH) levels (glutathione): reduce glutathione levels

CC(=O)N[C@@H](CS)C(=O)O [N-acetylcysteine]
effect on nanoparticle-induced cell death [1]: inhibited

O=C1O[C@H]([C@@H](O)CO)C(O)=C1O [ascorbic acid, Ascorbic acid]
effect on nanoparticle-induced cell death [1]: inhibited

COc1ccc(O)c(C(C)(C)C)c1 [butylated hydroxyanisole, Butylated hydroxyanisole]
effect on nanoparticle-induced cell death [1]: inhibited

C/C=C/[C@H]1O[C@@](O)([C@@H](C)[C@H](O)[C@H](C)[C@H]2OC(=O)/C(OC)=C/C(C)=C/[C@@H](C)[C@@H](O)[C@@H](CC)[C@@H](O)[C@H](C)C/C(C)=C/C=C/[C@@H]2OC)C[C@@H](O[C@H]2C[C@@H](O)[C@H](OC(N)=O)[C@@H](C)O2)[C@@H]1C [concanamycin A, Concanamycin A]
cell death morphology ([1]; amino acid-free media, 100 nM ConA): undergo cell death with morphologic features of apoptosis

C[C@@H]1C[C@@H]([C@H](O)CC2CC(=O)NC(=O)C2)C(=O)[C@@H](C)C1 [cycloheximide, Cycloheximide]
temporal pattern of apoptotic cell death ([1]; 50 μg/ml cycloheximide): asynchronous pattern of cell death

CCOC(=O)c1ccc(NC2CCCCC2)c(N)c1 [ferrostatin-1, Ferrostatin-1]
effect on α-MSH-PEG-C′ dot-induced cell death [1]: rescued cell viability

N[C@@H](CCC(=O)N[C@@H](CS)C(=O)NCC(=O)O)C(=O)O [glutathione, Glutathione]
effect on nanoparticle-induced cell death [1]: inhibited

Clc1cccc(CN=C2Nc3ccccc3NC23CCNCC3)c1 [liproxstatin-1, Liproxstatin-1]
effect on α-MSH-PEG-C′ dot-induced cell death [1]: rescued cell viability | effect on C11-BODIPY staining induced by erastin (lipid ROS): inhibits C11-BODIPY staining induced by erastin treatment | average daily tumor growth (HT-1080 tumors; HT1080, particle-exposed tumors (three 60 μM i.v. doses) treated with daily i.p. liproxstatin-1 125 mg/kg, 10 days, 95% CI: 10.1-18.9): 14.6 mm^3 | difference in average daily tumor growth, particles plus liproxstatin-1 vs particles alone (HT-1080 tumors; HT1080, CI: 13.1 to 17.6, p<0.001): 15.3 mm^3

CN1C(=O)C(Cc2c[nH]c3ccccc23)NC1=S (stereo not shown) [necrostatin-1, Necrostatin-1]
cell death on necroptosis induction [2]: do not undergo cell death

Cc1c(C)c2c(c(C)c1O)CCC(C)(C(=O)O)O2 (stereo not shown) [trolox, Trolox]
effect on nanoparticle-induced cell death [1]: inhibited

Ferric ammonium citrate
ferritin heavy chain (FTH1) expression [3]: increased | percent cell death (Sytox green+) (amino acid-starved cells): sufficient to mimic α-MSH-PEG-C′ dot-induced death
